Source: patent US11547697B2, “Heterocyclic compounds and uses thereof” (MILLENNIUM PHARMACEUTICALS, INC., priority 2009, dated 2023)
pIC50: −log10 of the molar value. Entries after “also recorded” stand apart in the source; their conditions may differ.

Tests used:
p110α/p85α = p110α/p85α (Homo sapiens (Human), UniProt P42336); experiment: PI 3-Kinase (human) HTRF assay, p110α/p85α; type: biochemical; settings: PI3K α compared with β, δ, γ
p110γ = p110γ (Homo sapiens (Human), UniProt P48736); experiment: PI 3-Kinase (human) HTRF assay, p110γ; type: biochemical; settings: read-out: PI3K γ IC50
[1] = tested on: pAKT(S473), pAKT(T308), pS6, p4E-BP1 in MDA-MB-361, T47D, PC3 cells; experiment: Inhibition of PI3K pathway in tumor cells (Western blot of pAKT, pS6, p4E-BP1); type: cell-based; settings: FIG. 2; 0.1 μM, 1 μM, and 10 μM, about 2 hours
Procedure: Cells comprising one or more mutations in PI3Kα, including but not limited to breast cancer cells (e.g., MDA-MB-361 and T47D), and cells comprising one or more mutations in PTEN including but not limited to prostate cancer cells (e.g., PC3), are typically grown in cell growth media such as DMEM supplemented with fetal bovine serum and/or antibiotics, and grown to confluency. Cells are then treated with various concentrations of test compound for about 2 hours and subsequently lysed in cell lysis buffer. Lysates are subjected to SDS-PAGE followed by Western blot analysis to detect downstream signaling markers, including but not limited to pAKT(S473), pAKT(T308), pS6, and p4E-BP1.

[2] = tested on: tumor cells with a PI3Kα mutation (e.g., MDA-MB-361 and T47D); experiment: Proliferation of tumor cells with PI3Kα mutation; type: cell-based
[3] = tested on: human umbilical vein endothelial cells (HUVEC); experiment: In vitro inhibition of angiogenesis, tube formation assay; type: cell-based; settings: FIG. 3
Procedure: Inhibition of angiogenesis in the presence of test compound is evaluated using a tube formation assay, such as by using a tube formation assay kit (e.g., commerically available from Invitrogen). Angiogenic capacity can be measured in vitro using an endothelial cell line, such as human umbilical vein endothelial cells (HUVEC). The assay is conducted according to the kit instructions, in the presence or absence of compound. Briefly, a gel matrix is applied to a cell culture surface, cells are added to the matrix-covered surface along with growth factors, with some samples also receiving an inhibitor compound, cells are incubated at 37° C. and 5% CO2 long enough for control samples (no compound added) to form tube structures (such as overnight), cells are stained using a cell-permeable dye (e.g., calcein), and cells are visualized to identify the degree of tube formation. Any decrease in tube formation relative to un-inhibited control cells is indicative of angiogenic inhibition. […] Based on doses tested and the corresponding degree of tube formation inhibition, IC50 values for tube formation are calculated. FIG. 3 also provides IC50 values for cell viability, which can be measured using any number of methods known in the art, such as staining methods that distinguish live from dead cells (e.g., Image-iT DEAD Green viability stain commercially available from Invitrogen).

[4] = tested on: 786-O cells, a human kidney carcinoma cell line; experiment: In vivo efficacy in 786-O xenograft (non-mutated PI3Kα); set-up: species or system mice; settings: FIG. 6
From the text: For example, a test compound is compared to a kinase inhibitor with specificity for mTor. […] FIG. 6 also provides biochemical potency data for the two compared inhibitors.

HCT116 cells = experiment: Cell arrest assay, alone and in combination with MEK inhibitor; type: cell-based, human
Procedure: Cells are then incubated in the presence of DMSO or inhibitor for 20 hours. The number of cells at each stage in the cell cycle is determined and expressed as a percent of the total, with an increase in the number of cells arrested at pre-GO/G1 indicating effective inhibition of cell cycle progression.

[5] = tested on: MDA-MB-361 (PI3Kα/HER2 carcinoma) tumors; experiment: In vivo efficacy in xenogenic mouse model of breast cancer
Procedure: Blood glucose is monitored periodically following administration of treatment. […] The effect of the compounds on the localization/viability of marginal zone B cells in the spleen is also evaluated at the conclusion of treatment.

[6] = tested on: p190 transduced leukemic cells; settings: about 70 mg/kg twice daily, p190 model; cited from earlier work

Chain of p110α/p85α (P42336 whole entry): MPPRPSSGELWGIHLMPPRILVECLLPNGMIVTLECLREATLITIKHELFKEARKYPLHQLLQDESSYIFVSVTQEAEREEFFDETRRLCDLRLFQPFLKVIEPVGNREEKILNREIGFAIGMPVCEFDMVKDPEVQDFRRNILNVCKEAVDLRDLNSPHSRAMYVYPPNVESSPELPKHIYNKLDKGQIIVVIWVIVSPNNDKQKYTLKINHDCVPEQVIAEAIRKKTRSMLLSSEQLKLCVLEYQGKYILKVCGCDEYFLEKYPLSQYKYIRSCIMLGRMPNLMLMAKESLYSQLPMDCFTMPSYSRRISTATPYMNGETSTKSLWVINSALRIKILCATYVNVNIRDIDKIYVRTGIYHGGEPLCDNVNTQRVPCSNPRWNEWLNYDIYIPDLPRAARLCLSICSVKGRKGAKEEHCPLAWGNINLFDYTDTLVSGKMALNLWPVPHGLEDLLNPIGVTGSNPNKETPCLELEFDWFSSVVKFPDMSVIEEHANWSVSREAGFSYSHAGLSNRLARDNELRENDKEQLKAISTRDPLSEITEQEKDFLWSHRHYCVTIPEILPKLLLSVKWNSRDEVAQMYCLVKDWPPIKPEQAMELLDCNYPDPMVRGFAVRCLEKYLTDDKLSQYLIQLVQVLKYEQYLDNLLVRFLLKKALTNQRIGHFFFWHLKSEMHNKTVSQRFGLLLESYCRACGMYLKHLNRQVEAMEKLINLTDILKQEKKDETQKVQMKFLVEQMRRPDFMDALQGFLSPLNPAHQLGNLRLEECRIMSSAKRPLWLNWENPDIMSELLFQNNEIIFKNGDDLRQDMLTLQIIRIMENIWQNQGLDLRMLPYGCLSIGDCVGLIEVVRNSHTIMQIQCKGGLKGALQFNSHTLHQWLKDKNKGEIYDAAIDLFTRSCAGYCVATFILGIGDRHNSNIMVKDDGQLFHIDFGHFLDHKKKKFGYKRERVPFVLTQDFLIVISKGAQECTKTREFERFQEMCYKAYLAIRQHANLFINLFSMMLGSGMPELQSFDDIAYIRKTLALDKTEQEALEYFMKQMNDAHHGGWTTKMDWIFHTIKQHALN
Chain of p110α/p85α (P27986 whole entry partner): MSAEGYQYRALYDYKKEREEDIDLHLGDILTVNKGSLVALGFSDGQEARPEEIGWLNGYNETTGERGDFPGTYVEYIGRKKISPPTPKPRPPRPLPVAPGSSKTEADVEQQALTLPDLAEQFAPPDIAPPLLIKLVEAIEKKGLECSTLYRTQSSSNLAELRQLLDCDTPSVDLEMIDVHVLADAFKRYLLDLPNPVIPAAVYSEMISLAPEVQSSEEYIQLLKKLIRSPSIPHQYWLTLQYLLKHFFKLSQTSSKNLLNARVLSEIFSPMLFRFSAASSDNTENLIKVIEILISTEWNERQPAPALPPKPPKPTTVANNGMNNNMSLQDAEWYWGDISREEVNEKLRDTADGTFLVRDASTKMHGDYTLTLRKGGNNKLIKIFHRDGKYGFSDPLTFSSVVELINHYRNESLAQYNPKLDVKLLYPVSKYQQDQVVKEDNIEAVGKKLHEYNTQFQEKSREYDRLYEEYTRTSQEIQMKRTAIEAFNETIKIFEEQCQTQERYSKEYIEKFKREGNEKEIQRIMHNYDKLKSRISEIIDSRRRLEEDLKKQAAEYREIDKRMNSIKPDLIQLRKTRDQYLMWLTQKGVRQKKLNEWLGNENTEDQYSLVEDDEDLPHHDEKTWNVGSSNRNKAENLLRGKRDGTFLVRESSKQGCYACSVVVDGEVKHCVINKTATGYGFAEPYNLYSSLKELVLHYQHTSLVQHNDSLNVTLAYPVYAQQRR
Chain of p110γ (P48736 whole entry): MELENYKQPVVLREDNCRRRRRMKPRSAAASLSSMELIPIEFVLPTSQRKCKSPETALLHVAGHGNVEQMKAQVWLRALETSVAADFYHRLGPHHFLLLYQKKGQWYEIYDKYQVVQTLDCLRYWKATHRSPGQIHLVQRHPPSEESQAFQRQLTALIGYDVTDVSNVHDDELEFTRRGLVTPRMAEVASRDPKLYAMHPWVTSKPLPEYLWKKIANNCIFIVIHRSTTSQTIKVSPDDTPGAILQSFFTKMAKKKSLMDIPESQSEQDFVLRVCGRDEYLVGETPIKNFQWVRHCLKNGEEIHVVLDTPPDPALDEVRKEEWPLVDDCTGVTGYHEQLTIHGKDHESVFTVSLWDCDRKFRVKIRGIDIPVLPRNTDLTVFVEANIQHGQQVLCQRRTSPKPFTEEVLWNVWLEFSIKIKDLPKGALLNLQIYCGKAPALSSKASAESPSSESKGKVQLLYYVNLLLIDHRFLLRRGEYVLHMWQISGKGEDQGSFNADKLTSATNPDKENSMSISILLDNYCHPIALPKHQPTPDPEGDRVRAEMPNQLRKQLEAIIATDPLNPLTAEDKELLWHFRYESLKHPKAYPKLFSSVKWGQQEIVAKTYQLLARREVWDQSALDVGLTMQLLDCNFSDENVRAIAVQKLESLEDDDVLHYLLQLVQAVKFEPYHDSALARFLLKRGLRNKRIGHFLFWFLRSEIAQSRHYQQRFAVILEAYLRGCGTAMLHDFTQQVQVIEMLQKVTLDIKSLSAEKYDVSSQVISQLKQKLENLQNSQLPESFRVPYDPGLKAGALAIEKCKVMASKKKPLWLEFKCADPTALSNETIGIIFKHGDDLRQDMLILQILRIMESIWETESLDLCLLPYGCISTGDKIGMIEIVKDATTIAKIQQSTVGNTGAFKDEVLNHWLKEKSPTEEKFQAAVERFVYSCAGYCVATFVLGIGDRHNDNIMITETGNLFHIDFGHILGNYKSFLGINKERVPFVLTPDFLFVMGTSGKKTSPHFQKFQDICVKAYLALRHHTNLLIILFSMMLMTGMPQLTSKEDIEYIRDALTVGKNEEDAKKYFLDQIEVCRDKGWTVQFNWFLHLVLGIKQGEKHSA

Nc1nc2cc(-c3ccc4ncc(C(=O)N5CCOCC5)n4c3)ccc2o1 [compound 54]
Specificity of PI3K α inhibition versus PI3K β, δ and γ (IC50, FIG. 1 / FIG. 3) (p110α/p85α): Inhibition of PI3K α at lower concentrations than those for β, δ, and γ; also recorded: specificity for PI3K α inhibition | pIC50 (p110γ): > 5.00 | Inhibition of the PI3K pathway (downstream signaling markers) [1]: inhibits the PI3K pathway | Inhibition of proliferation of tumor cells with a PI3Kα mutation ([2]; FIG. 2): inhibits the PI3K pathway and the proliferation of tumor cells with a PI3Kα mutation | pIC50 ([2]; Homo sapiens, T47D cells, read-out: T47D proliferation): > 5.00 | Potency of angiogenesis inhibition (tube formation) compared with Pan-PI3K inhibitor [3]: comparable to higher potency | Anti-tumor activity in 786-O tumors [4]: still showing some anti-tumor activity, has decreased activity by comparison to that seen in the MDA derived tumors | Arrested cells (pre-GO/G1), percent of the total (HCT116 cells; 3 μM compound 54 combined with 0.3 μM MEK inhibitor (PD0325901), 20 hours, FIG. 7): 55% | Cell cycle arrest, single inhibitor versus DMSO control (HCT116 cells; 3 μM compound 54 or 0.3 μM PD0325901, 20 hours): some increase in cell cycle arrest by comparison to DMSO control | Combination effect with other (MEK) inhibitors (HCT116 cells; compound 54 plus MEK inhibitor): synergistic | Arrested cells expected by merely adding the individual effects (HCT116 cells; sum of 3 μM compound 54 alone and 0.3 μM MEK inhibitor alone, 20 hours): 40% | Impact on blood glucose ([5]; MDA-MB-361 tumor-bearing nude mice, daily oral dosing, FIG. 4): without the impact on blood glucose | Kinase- and tumor growth-inhibition activity ([5]; MDA-MB-361 tumors in nude mice, 30 mpk or 60 mpk test compound, 70 mpk Pan-PI3K inhibitor, daily oral lavage, FIG. 4): comparable kinase- and tumor growth-inhibition activity to the Pan-PI3K inhibitor | Localization/viability of marginal zone B cells in the spleen ([5]; at conclusion of treatment, FIG. 5): does not affect localization/viability of marginal zone B cells

Cc1ccc(NC(=O)c2ccc(CN3CCN(C)CC3)cc2)cc1Nc1nccc(-c2cccnc2)n1 [imatinib]
Effect on leukemogenesis [6]: delay but not cure leukemogenesis
